{
  "source": "patent US8791092B2",
  "about": "(priority 2009, dated 2014)",
  "key": {"[1]": {"tested_on": "Aβ40-induced toxicity in differentiated PC-12 cells", "test": "Aβ40-induced toxicity, MTT assay in differentiated PC-12 cells", "format": "cell-based", "description": "(§1) Freshly prepared 10 μM Aβ40 or Aβ42 were mixed with each of the three tweezers derivatives and added to differentiated PC-12 cells. Cell viability relative to media control was measured using the MTT assay.\n(§2) 7. […] Based on the capability of the tweezers to inhibit Aβ aggregation, disaggregate pre-formed Aβ fibrils, and stabilize putatively non-toxic Aβ oligomers, we predicted that they should inhibit Aβ-induced toxicity. […] Next, we evaluated the dose-dependence of the effect of each of the three tweezers derivatives on Aβ40 and Aβ42 using the same cell culture system. Aβ42 was used at 10 μM as in the previous experiment, whereas the less neurotoxic Aβ40 was used at 25 μM. […] PC-12 cells were differentiated for 48 hours prior to the start of the assay. […] Based on the data extant, prediction of inhibitory activity based on tweezers structure alone is impossible. Thus, using molecular tweezers as inhibitors of Aβ toxicity is by no means trivial."}, "β2-microglobulin (β2m)": {"molecular_target": "β2-microglobulin (β2m) (Homo sapiens, UniProt P61769)", "sequence (P61769 21-119)": "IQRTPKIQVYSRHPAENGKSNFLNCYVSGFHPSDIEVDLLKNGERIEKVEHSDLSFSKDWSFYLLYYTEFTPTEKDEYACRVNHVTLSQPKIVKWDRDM", "test": "Fibrillogenesis of β2-microglobulin (ThT fluorescence and EM)", "format": "biochemical", "conditions": "1:10 or 1:20 concentration ratio"}, "[2]": {"tested_on": "primary mouse hippocampal neurons", "test": "Aβ42-mediated inhibition of miniature excitatory postsynaptic currents (mEPSCs)", "format": "cell-based", "conditions": "3 μM Aβ42, 1:10 Aβ42:TW1", "description": "Cells were perfused with vehicle for 5 min to establish baseline, and then with peptide or peptide:tweezers solutions for additional 20 minutes, and allowed to recover in vehicle solution for 15 minutes.\n(§3) 8. […] An early neurotoxic event induced by Aβ oligomers and believed to be a predominant pathologic mechanism causing amnestic mild cognitive impairment (MCIa) and early AD^(1) is disruption of synapse morphology and communication (Shankar et al. (2007) J. Neurosci. 27: 2866-2875). […] Aβ42 oligomers caused essentially complete depletion of dendritic spines (FIG. 14, panels B, C) compared to control (FIG. 14, panel A). […] This effect endured after the 15-min washing period."}, "[3]": {"tested_on": "rat primary hippocampal neurons", "test": "Aβ42-induced decrease in dendritic spine density", "format": "cell-based", "description": "Neurons were visualized by staining F-actin with phalloidin (red) and nuclei were stained with DAPI (blue). A) Untreated cells show abundant dendritic spines (rough appearance). B and C) Show duplicate fields from the same experiment. Cells incubated with 500 nM Aβ42 oligomers show essential absence of spines (smooth neurites).\nas §3"}, "Aβ42 [4]": {"molecular_target": "T1, Aβ42 (Homo sapiens, UniProt P05067)", "T1 sequence (P05067 672-713 limits assumed)": "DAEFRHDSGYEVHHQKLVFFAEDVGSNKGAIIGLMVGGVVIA", "test": "β-sheet formation by Aβ42 under agitation (shaking)", "format": "biochemical", "parameters": "C) 30 μM Aβ42", "conditions": "10 μM Aβ42; 1:10 Aβ:tweezers concentration ratio; shaken at 200 rpm", "description": "Aβ42 was used at 10 μM. […] The samples were shaken at 200 rpm."}, "Aβ42 [5]": {"molecular_target": "T1, Aβ42", "test": "Aβ42 aggregation measured by dynamic light scattering (DLS)", "format": "biochemical", "parameters": "C) 30 μM Aβ42"}, "[6]": {"tested_on": "differentiated PC-12 cells", "test": "Effect of tweezers alone on cell viability, MTT assay", "format": "cell-based", "conditions": "50 μM TW1", "description": "(§4) Cell viability relative to media control was measured using the MTT assay.\nas §1, §2"}, "insulin": {"molecular_target": "insulin (Homo sapiens, UniProt P01308)", "sequence (P01308 25-54 limits assumed, species assumed)": "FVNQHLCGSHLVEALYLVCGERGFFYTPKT", "sequence (P01308 90-110 partner limits assumed, species assumed)": "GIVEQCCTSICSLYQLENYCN", "test": "Fibrillogenesis of insulin (ThT fluorescence and EM)", "format": "biochemical", "conditions": "1:10 or 1:20 concentration ratio"}, "calcitonin": {"molecular_target": "T2, calcitonin (Homo sapiens, UniProt P01258)", "T2 sequence (P01258 85-116 limits assumed)": "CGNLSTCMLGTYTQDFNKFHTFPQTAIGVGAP", "test": "Fibrillogenesis of calcitonin (ThT fluorescence and EM)", "format": "biochemical", "conditions": "1:10 or 1:20 concentration ratio"}, "[7]": {"tested_on": "Aβ42-induced toxicity in differentiated PC-12 cells", "test": "Aβ42-induced toxicity, MTT assay in differentiated PC-12 cells", "format": "cell-based", "description": "as §4, §1, §2"}, "Aβ42 [8]": {"molecular_target": "T1, Aβ42", "test": "Quiescent Aβ42 fibril formation measured by electron microscopy (EM)", "format": "biochemical", "parameters": "C) 30 μM Aβ42", "conditions": "25 μM Aβ42 + 20 μM TW1, days 3, 5, 10", "description": "8 μL of each solution were applied to glow-discharged, carbon-coated Formvar grids and incubated for 20 min. The samples were fixed by incubating with 5 μL of 2.5% glutaraldehyde for 5 min, and stained with 5 μL of 1% uranyl acetate for 5 min. The stained samples were examined using a JEOL CX100 electron microscope. A-C) 25 μM Aβ42. […] A, D) day 3. B, E) day 5. C, F) day 10.\n5. TW1 attenuates Aβ fibril formation as measured by electron microscopy (EM)."}, "Aβ40 [9]": {"molecular_target": "T3, Aβ40 (Homo sapiens, UniProt P05067)", "T3 sequence (P05067 672-711 limits assumed)": "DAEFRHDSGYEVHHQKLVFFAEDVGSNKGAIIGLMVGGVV", "conditions": "20 μM Aβ40, 10-fold excess TW1; for over a month"}, "[10]": {"molecular_target": "T4, islet amyloid polypeptide (IAPP) (Homo sapiens, UniProt P10997)", "T4 sequence (P10997 34-70 limits assumed)": "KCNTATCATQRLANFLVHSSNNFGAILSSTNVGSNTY", "test": "Fibrillogenesis of islet amyloid polypeptide (ThT fluorescence and EM)", "format": "biochemical", "conditions": "1:10 or 1:20 concentration ratio"}, "Aβ40 [11]": {"molecular_target": "T3, Aβ40", "format": "binding", "parameters": "A) 25 μM Aβ40", "conditions": "1:1 Aβ40:TW1 concentration ratio"}, "Aβ42 [12]": {"molecular_target": "T1, Aβ42", "test": "Quiescent Aβ42 β-sheet formation measured by thioflavin T (ThT) fluorescence", "conditions": "25 μM Aβ42, 20 μM tweezers, substoichiometric"}},
  "note": "Entries after “also recorded” stand apart in the source; their conditions may differ.",
  "data": [
    {"smiles": "O=P(O)(O)Oc1c2c(c(OP(=O)(O)O)c3c1C1C[C@H]3c3cc4c(cc31)C1C[C@H]4c3ccccc31)[C@@H]1CC2c2cc3c(cc21)[C@@H]1CC3c2ccccc21", "note": "[TW1]", "values": [
      {"measurement": "IC50", "setting": "[1]; Rattus norvegicus, PC-12, 48 h, read-out: IC50, inhibition of Aβ40-induced toxicity", "result": 7, "unit": "µM"},
      {"measurement": "inhibition of Aβ40-induced toxicity (in words)", "setting": "[1]; tweezers 0.1-100 μM, dose-dependence experiment", "result": "inhibit Aβ-induced toxicity dose-dependently"},
      {"measurement": "inhibition of β2m fibrillogenesis", "setting": "β2-microglobulin (β2m)", "result": "inhibited the fibrillogenesis; also recorded: inhibited the aggregation"},
      {"measurement": "rescue of Aβ42-induced reduction of mEPSC frequency", "setting": "[2]", "result": "rescued to baseline level; also recorded: rescues the toxic effect of Aβ42 to baseline level"},
      {"measurement": "rescue of Aβ42-induced depletion of dendritic spines, TW1 present during oligomer preparation", "setting": "[3]; 500 nM Aβ42 oligomerized in presence of 250 nM TW1, 48 h", "result": "rescued this toxic effect to baseline level; also recorded: essentially complete rescue"},
      {"measurement": "rescue of dendritic spines, TW1 added with pre-formed Aβ42 oligomers", "setting": "[3]; 500 nM pre-formed Aβ42 oligomers, 5 μM TW1 (10-fold excess), 48 h", "result": "moderate rescue effect"},
      {"measurement": "effect of TW1 alone on dendritic spine morphology", "setting": "[3]; 5 μM TW1", "result": "no effect"},
      {"measurement": "inhibition of β-sheet formation by Aβ42 under agitation", "setting": "Aβ42 [4]", "result": "efficient inhibition; also recorded: completely inhibited"},
      {"measurement": "Aβ42 particle growth (DLS)", "setting": "Aβ42 [5]; 20 μM Aβ42, 10-fold excess TW1, for over a month", "result": "no particle growth was observed"},
      {"measurement": "Aβ42 particle growth (DLS)", "setting": "Aβ42 [5]; 1:1 concentration ratio", "result": "substantially delayed or not observed at all"},
      {"measurement": "toxicity of tweezers alone (in words)", "setting": "[6]", "result": "nontoxic"},
      {"measurement": "inhibition of insulin fibrillogenesis", "setting": "insulin", "result": "inhibited the fibrillogenesis; also recorded: inhibited the aggregation"},
      {"measurement": "inhibition of calcitonin fibrillogenesis", "setting": "calcitonin", "result": "inhibited the fibrillogenesis; also recorded: inhibited the aggregation"},
      {"measurement": "inhibition of Aβ42-induced toxicity (in words)", "setting": "[7]; 10 μM Aβ42, tweezers 0.1-100 μM, dose-dependence experiment", "result": "inhibit Aβ-induced toxicity dose-dependently"},
      {"measurement": "IC50", "setting": "[7]; Rattus norvegicus, 10 μM Aβ42, tweezers 0.1-100 μM, PC-12 differentiated 48 hours, read-out: IC50, inhibition of Aβ42-induced toxicity", "result": 60, "unit": "µM"},
      {"measurement": "times more TW1 required to inhibit Aβ42 than Aβ40 toxicity", "setting": "[7]; from IC50 values", "result": "9-10 times"},
      {"measurement": "conversion of Aβ42 to typical amyloid fibrils (EM)", "setting": "Aβ42 [8]", "result": "delayed substantially"},
      {"measurement": "Aβ40 particle growth (DLS)", "setting": "Aβ40 [9]", "result": "no particle growth was observed"},
      {"measurement": "inhibition of IAPP fibrillogenesis", "setting": "[10]", "result": "inhibited the fibrillogenesis; also recorded: inhibited the aggregation"},
      {"measurement": "binding site of TW1 in the 1:1 complex (ECD)", "setting": "Aβ40 [11]", "result": "within the Aβ(14-23) region, most likely at Lys16; also recorded: Lys16"},
      {"measurement": "inhibition of β-sheet formation by Aβ42 (ThT)", "setting": "Aβ42 [12]", "result": "inhibit β-sheet formation"}
    ]}
  ]
}
